Data set [1] is described as follows: In vivo antitumor assay, Mam16C(sc). Also noted: species or system mice. The settings on record: mouse, in vivo, drug iv, qd 1-4, exp 1132. The text has this: (§1) Mice: Inbred: C3H/He and NCR-nu; and Hybrids: B6D2F1 (C57BL/6 females×DBA/2 males, CD2F1 (Balb/c females×DBS/2 males) and B6C3fl (C57BL/6×C3H) were bred at Wayne State University from strains obtained from the Frederick Cancer Research Facility, Frederick, Maryland or purchased from commercial suppliers.
(§2) Tumors: Murine Tumor: P388 and an adriamycin-resistant (ADR) subline P388/ADR leukemia and the following transplantable solid tumors of mice were used for in vivo testing: B16 melanoma (B16), pancreatic ductal adenocarcinoma No. 03 (Pane 03), colon adenocarcinoma No. 38 (colo 38), lung carcinoma No. 12 (LC 12), mammary ductal adenocarcinoma No. 16/C (Mam16C) and an adriamycin-resistant subline Mam16C/ADR. Human tumor: A single human tumor, mammary carcinoma MX-1 was used for in vivo testing. All tumors are in the Developmental Therapeutics Program frozen tumor respository, maintained by the Biological Testing Branch, Frederick Maryland. Each has a detailed description, code identification number, and list of references at the National Tumor Repository. Murine tumors were maintained in the mouse strain of origin and were transplanted in the appropriate F1 hydrid (or the strain of origin) for therapy trials. Human mammary carcinoma MX-1 (MX1) was maintained as a subcutaneous implant in either athymic Swiss (Cr: NIH(S)-nu) or athymic random bred (NCR-nu) mice and transplanted in NCR-nu for therapy trials.
(§3) Chemotherapy: For pancreatic ductal adenocarcinoma No. 3, colon adenocarcinoma No. 38 (colo 38), lung carcinoma No. 12 LC 12) and both adriamycin-sensitive (RP) and-resistant (ADR) mammary ductal adenocarcinoma No. 16 (Mam16) tumors, bilateral tumor implants were used to help ensure a more uniform tumor burden per mouse (thus reducing the requirement for greater numbers of mice per group). The animals necessary to begin an experiment were pooled, implanted bilaterally s.c. on day zero with 30-60 mg tumor fragments using a 12-gauge trocar, and again pooled before randomization to the various treatment and control groups. Chemotherapy was started within three days after tumor implantation while the number of cells per mouse was relatively small (1×10^7 -1×10^8 cells).
(§4) Quantitative end points used to assess antitumor activity included % Increased Life Span (% ILS), Tumor Cell Kill (Log10 kill), and Tumor Growth Inhibition (T/C). Long Term Survivors (45 or 60 day) were excluded from calculations of %ILS and Tumor Cell Kill.
(§5) The log10 cell kill was calculated from the following formula: [formula] where T-C is the tumor difference in the median day of death between the treated (T) and the control (C) groups and Td is the tumor doubling time (in days), the latter estimated from the best fit straight line from a log-linear growth plot of the control-group tumors in exponential growth. The conversion of the T-C values to log10 cell kill is possible because the Td for tumors regrowing post-treatment approximated the Td values of the tumors in untreated control mice.
(§6) Tumors were measured with a caliper once or twice weekly (as needed) until either tumors exceeded 1600 mg or cure was assured. […] When the control group tumors reached approximately 750-1500 mg in size (median of group), the median tumor weight of each group was determined (including zeros). […] The % T/C was calculated from the following formula for solid murine tumor models: [formula] where T and C are median tumor weights of the treatment and control groups, respectively. […]

In data set [2] the test system is mammary ductal adenocarcinoma No. 16/C (Mam16C). In words: In vivo antitumor assay, Mam16C(sc). Also noted: species or system mice. The settings on record: drug iv.
From the text: as §1, §2, §3, §4, §5, §6

Take `Cc1cc(-c2c(F)cc3c4nn(CCN(C)C)c(=O)c-4cn(C4CC4)c3c2F)cc(C)n1.O=C(O)/C=C/C(=O)O` [Example 1, 5-Cyclopropyl-6,8-difluoro-2,5-dihydro-2-[2-(dimethylamino)-ethyl]-7-(2,6-dimethyl-4-pyridinyl)-3H-pyrazolo[4,3-c]quinolin-3-one (E)-2-butendioate (1:1)]: the MTD in data set [1] worked out at 43 mg/kg. Also, in data set [2] (qd 1,3,5, exp 1142A), the “Log Kill” value was 1.9 and the T/C % was determined as 18%. In addition, in data set [2] (qd 1-4, exp 1132), the “Log Kill” value is on record as 1.3 and the T/C % worked out at 7%.
